Experimental data: publication PMC5421785, “Citrullination only infrequently impacts peptide binding to HLA class II MHC” (PLoS ONE, 2017)
Like-named read-outs stand apart in the source and are kept apart here. Blank lines part the entries; values can stand above or below the compound they belong to. Square brackets hold non-standard residues; d marks the D form. Ends that are not written are not given here. Peptide text beside a SMILES is read from it. Cit = NC(=O)NCCC[C@H](N)C(=O)O

Key:
HLA-DRB1*04:01 = target: T1, HLA-DRB1*04:01 (Homo sapiens, UniProt P01903+P01911, A100K/A169T/F76Y/I96L/K127E/L162R/M171V/N62H/P40V/Q125Y/R42H/S133A/S149N/S66Y/V115G/V209L/W38E); assay: HLA class II peptide binding, inhibition of radiolabeled peptide binding to purified MHC
T1 construct: EBV transformed homozygous cell lines were used as sources of MHC molecules; endogenous in cells; host or cells: EBV transformed homozygous cell lines

HLA-DRB1*01:01 = target: T2, HLA-DRB1*01:01 (Homo sapiens, UniProt P01903+P01911, A100R/D57E/F55L/F60I/F76Y/I96L/L162R/M171V/P40L/Q125E/R42F/V115G/Y59C); assay: as above
T2 construct: EBV transformed homozygous cell lines were used as sources of MHC molecules; endogenous in cells; host or cells: EBV transformed homozygous cell lines

[1] = citrullinated 15-mer peptide (X = citrulline), purified HLA-DRB1*04:01, read-out: DRB1*04:01 binding capacity, Cit peptide (IC50 nM)
[2] = citrullinated 15-mer peptide (X = citrulline), purified HLA-DRB1*01:01, read-out: DRB1*01:01 binding capacity, Cit peptide (IC50 nM)
[3] = wild-type (unmodified Arg) 15-mer peptide, purified HLA-DRB1*04:01, read-out: DRB1*04:01 binding capacity, WT peptide (IC50 nM)
[4] = wild-type (unmodified Arg) 15-mer peptide, purified HLA-DRB1*01:01, read-out: DRB1*01:01 binding capacity, WT peptide (IC50 nM)
[5] = citrullinated 15-mer (X), purified MHC, inhibition of radiolabeled peptide binding, dash = IC50 >40,000 nM, read-out: DRB1*04:01 binding capacity, Cit peptide (IC50 nM)
[6] = citrullinated 15-mer (X), purified MHC, inhibition of radiolabeled peptide binding, dash = IC50 >40,000 nM, read-out: DRB1*01:01 binding capacity, Cit peptide (IC50 nM)
[7] = ratio of WT IC50 to Cit IC50, >1 = citrullination increases binding

- IC50 (HLA-DRB1*04:01; [1]): 31800 nM
- IC50 (HLA-DRB1*01:01; [2]): > 40000 nM
Compound: CC[C@H](C)[C@H](NC(=O)[C@H](CCC(=O)O)NC(=O)[C@H](CC(=O)O)NC(=O)[C@H](CCC(N)=O)NC(=O)[C@H](CC(C)C)NC(=O)[C@H](CCCNC(N)=O)NC(=O)CNC(=O)[C@@H](NC(=O)[C@@H](N)[C@@H](C)O)[C@@H](C)CC)C(=O)N[C@@H](CCC(N)=O)C(=O)N[C@@H](CC(N)=O)C(=O)N[C@@H](CCSC)C(=O)N[C@@H](CCCCN)C(=O)N[C@@H](CCC(=O)O)C(=O)N[C@@H](CCC(=O)O)C(=O)O [TIGXLQDEIQNMKEE] (H-TIG[Cit]LQDEIQNMKEE-OH)

- IC50 (HLA-DRB1*04:01; [3]): > 40000 nM
- IC50 (HLA-DRB1*01:01; [4]): > 40000 nM
Compound: REGSPGADGPPGRDG [Collagen 1036 WT]

- IC50 (HLA-DRB1*04:01; [1]): 16600 nM
- IC50 (HLA-DRB1*01:01; [2]): > 40000 nM
Compound: CSCC[C@H](NC(=O)[C@H](CCC(N)=O)NC(=O)[C@H](CCCNC(N)=O)NC(=O)[C@H](CCC(=O)O)NC(=O)[C@H](CC(C)C)NC(=O)[C@H](CO)NC(=O)[C@H](CCC(=O)O)NC(=O)[C@H](CC(N)=O)NC(=O)[C@@H](NC(=O)CNC(=O)[C@H](CCCCN)NC(=O)[C@H](CC(C)C)NC(=O)[C@H](C)NC(=O)[C@@H](N)CC(=O)O)[C@@H](C)O)C(=O)N[C@@H](CCCNC(=N)N)C(=O)O [DALKGTNESLEXQMR] (H-DALKGTNESLE[Cit]QMR-OH)

- IC50 (HLA-DRB1*04:01; [5]): 4740 nM
- IC50 (HLA-DRB1*01:01; [6]): 1490 nM
Compound: CSCC[C@H](NC(=O)[C@H](CCC(=O)O)NC(=O)[C@H](CCC(=O)O)NC(=O)[C@@H](N)CCC(=O)O)C(=O)N[C@@H](CCCNC(=N)N)C(=O)N[C@@H](CCC(=O)O)C(=O)N[C@@H](CC(C)C)C(=O)N[C@@H](CCCNC(N)=O)C(=O)N[C@@H](CCCNC(=N)N)C(=O)N[C@@H](CCC(N)=O)C(=O)N[C@H](C(=O)N[C@@H](CC(=O)O)C(=O)N[C@@H](CCC(N)=O)C(=O)N[C@@H](CC(C)C)C(=O)N[C@H](C(=O)O)[C@@H](C)O)C(C)C [EEEMRELXRQVDQLT] (H-EEEMREL[Cit]RQVDQLT-OH)

- IC50 (HLA-DRB1*04:01; [5]): > 40000 nM
- IC50 (HLA-DRB1*01:01; [6]): 13800 nM
Compound: C[C@H](NC(=O)[C@@H](NC(=O)CNC(=O)[C@@H]1CCCN1C(=O)CNC(=O)CN)[C@@H](C)O)C(=O)N[C@@H](CO)C(=O)N[C@@H](CCCNC(=N)N)C(=O)N1CCC[C@H]1C(=O)N[C@@H](CO)C(=O)N[C@@H](CO)C(=O)N[C@@H](CO)C(=O)N[C@@H](CCCNC(N)=O)C(=O)N[C@@H](CO)C(=O)N[C@@H](Cc1ccc(O)cc1)C(=O)O [GGPGTASRPSSSXSY] (H-GGPGTASRPSSS[Cit]SY-OH)

- IC50 (HLA-DRB1*04:01; [1]): > 40000 nM
- DRB1*04:01 binding capacity, WT/cit ratio (HLA-DRB1*04:01; [7]): 1.0
- IC50 (HLA-DRB1*01:01; [2]): > 40000 nM
- DRB1*01:01 binding capacity, WT/cit ratio (HLA-DRB1*01:01; [7]): 1.0
Compound: C[C@H](NC(=O)CNC(=O)[C@@H]1CCCN1C(=O)[C@H](CO)NC(=O)CNC(=O)[C@H](CCC(=O)O)NC(=O)[C@@H](N)CCCNC(=N)N)C(=O)N[C@@H](CC(=O)O)C(=O)NCC(=O)N1CCC[C@H]1C(=O)N1CCC[C@H]1C(=O)NCC(=O)N[C@@H](CCCNC(N)=O)C(=O)N[C@@H](CC(=O)O)C(=O)NCC(=O)O [REGSPGADGPPGXDG] (H-REGSPGADGPPG[Cit]DG-OH; N-terminus and C-terminus assumed)

- IC50 (HLA-DRB1*04:01; [3]): 9140 nM
- IC50 (HLA-DRB1*01:01; [4]): 2730 nM
Compound: RQVQSLTCEVDALKG [Vimentin 321 WT]

- IC50 (HLA-DRB1*04:01; [5]): 14000 nM
- IC50 (HLA-DRB1*01:01; [6]): 869 nM
Compound: CSCC[C@H](NC(=O)[C@H](CCC(=O)O)NC(=O)[C@@H](N)CCC(=O)O)C(=O)N[C@@H](CC(C)C)C(=O)N[C@@H](CCC(N)=O)C(=O)N[C@@H](CCCNC(N)=O)C(=O)N[C@@H](CCC(=O)O)C(=O)N[C@@H](CCC(=O)O)C(=O)N[C@@H](C)C(=O)N[C@@H](CCC(=O)O)C(=O)N[C@@H](CC(N)=O)C(=O)N[C@H](C(=O)N[C@@H](CC(C)C)C(=O)N[C@@H](CCC(N)=O)C(=O)N[C@@H](CO)C(=O)O)[C@@H](C)O [EEMLQXEEAENTLQS] (H-EEMLQ[Cit]EEAENTLQS-OH)

- IC50 (HLA-DRB1*04:01; read-out: DRB1*04:01 binding capacity, WT peptide (IC50 nM)): 12000 nM
- IC50 (HLA-DRB1*01:01; read-out: DRB1*01:01 binding capacity, WT peptide (IC50 nM)): 68 nM
Compound: FSLADAINTEFKNTR [Vimentin 86 WT]

- IC50 (HLA-DRB1*04:01; [1]): > 40000 nM
- IC50 (HLA-DRB1*01:01; [2]): 2010 nM
Compound: CC(C)[C@H](NC(=O)CNC(=O)[C@H](C)NC(=O)[C@H](C)N)C(=O)N[C@@H](CCCCN)C(=O)NCC(=O)N[C@@H](CC(=O)O)C(=O)N[C@@H](CCCNC(N)=O)C(=O)NCC(=O)N[C@@H](CCC(=O)O)C(=O)N[C@H](C(=O)NCC(=O)N[C@@H](C)C(=O)N[C@H](C(=O)NCC(=O)O)C(C)C)[C@@H](C)O [AAGVKGDXGETGAVG] (H-AAGVKGD[Cit]GETGAVG-OH)

- IC50 (HLA-DRB1*04:01; [1]): 33300 nM
- IC50 (HLA-DRB1*01:01; [2]): 2270 nM
Compound: CC(C)[C@H](NC(=O)[C@H](CC(=O)O)NC(=O)CNC(=O)[C@H](CCCNC(N)=O)NC(=O)[C@@H](N)CC(=O)O)C(=O)NCC(=O)N[C@@H](CCC(=O)O)C(=O)N[C@@H](CCCCN)C(=O)NCC(=O)N1CCC[C@H]1C(=O)N[C@@H](CCC(=O)O)C(=O)NCC(=O)N[C@@H](C)C(=O)N1CCC[C@H]1C(=O)NCC(=O)O [DXGDVGEKGPEGAPG] (H-D[Cit]GDVGEKGPEGAPG-OH)
